Laboratory results reported in patent US10159685B2, “Vascular calcification” (Cambridge Enterprise Limited, priority 2016, dated 2018).
Like-named read-outs stand apart in the source and are kept apart here. Marks after values point to notes of the source that are not given here.

How the values were obtained:
[1] = test system: bovine vascular smooth muscle cells (bVSMCs); format: cell-based; settings: 7 days; for Cell viability of bVSMCs after seven days (MTT signal, relative to control): mean of three experiments
Experimental: The toxicity of the identified compounds to bovine VSMCs was measured using the MTT assay, which measures the activity of dehydrogenase enzymes of live cells. This assay can pick up both cell death and proliferation.
Bovine VSMCs were seeded in 96 well plates and cultured in M199/20% FCS for 1 day. Then, the cells were incubated with inhibitor concentrations from 0.5 to 100 μM (in M199 medium+5% FBS). The cells were incubated with the inhibitors for 7 days; every 2-3 days the medium −/+inhibitors was exchanged. Then, the MTT assay was performed. The stock vehicle DMSO was tested at corresponding concentrations to the inhibitors at 0.1% DMSO or less.

[2] = test system: human monocyte-macrophages (HMMs); assay: MTT toxicity assay, HMMs, seven days (Example 3); format: cell-based; settings: 7 days; for Cell viability by MTT, percent of control: mean of three experiments; for Toxicity to HMMs (in words): at a concentration of 100 μM
Experimental: A similar set of toxicity experiments was performed with human monocyte-macrophages (HMMs).

[3] = test system: bovine vascular smooth muscle cells (bVSMCs); assay: o-Cresolphthalein Ca2+ assay, bVSMC GAD calcification model (Examples 4 and 5); format: cell-based; settings: GAD-treated bVSMCs, 10 μM, 7 d
Experimental: (§1) For the bVSMCs a GAD medium (10 mM β-glycerophosphate/0.1 mM L-ascorbic acid-2-phosphate/10 nM dexamethasone) model was used to induce mineralization in bVSMCs. Accordingly, cells were seeded in tissue culture plates using M199/20% FCS culture medium and cultured overnight. The next day, cells were treated either with medium only (M199/5% FBS)+/−inhibitors, or with the GAD-medium (10 mM β-glycerophosphate/0.1 mM L-ascorbic acid-2-phosphate/[…] dexamethasone)+/−inhibitors.
Medium+/−inhibitors was exchanged every 2-3 days. […]
The o-Cresolphthalein assay is a spectrophotometric method for measuring Ca^2+-concentrations in cell/tissue lysates. Following the calcification experiments, cells are briefly washed to remove medium and 100 […]1 of 0.1 N HCl is added to each well to dissolve any mineral deposits. Then, the Ca^2+-concentration of the samples is measured spectrophotometrically (at 570 nm) in the o-cresolphthalein assay with the help of a CaCl2 standard curve in a concentration range of ˜0.02-270 µg Ca^2+/ml.
The commercial BioRad DC protein assay is based on the Lowry method, aka reaction of proteins with a copper-tartrate complex and subsequent reaction with Folin's reagent. Following the calcification experiment, cells are briefly washed to remove medium and 100 µl of solubilisation solution (0.1 M NaOH/1% SDS/DIW) is added to each well to lyse the cells. The protein concentrations of the lysates are subsequently determined in the BioRad DC assay as per supplier's instructions using BSA (bovine serum albumin) as standard.
The in vitro model is the same as the model used in example 4; bovine vascular smooth muscle cells (bVSMCs) cultured so that they produce extracellular matrix, with the addition of the GAD medium (10 mM β-glycerophosphate/0.1 mM L-ascorbic acid-2-phosphate/10 nM dexamethasone).
As above, cells were treated either with medium only (“no-additions”; NA)+/−inhibitors, or with the GAD-medium+/−inhibitors. The inhibitors used were PJ34 and minocyclin (MC) at 10 μM, 1 μM and 0.1 μM.
The methodology was the same as that described in example 4.

[4] = test system: PARP produced by a mammalian cell; settings: have been shown; cited from earlier work
[5] = test system: bovine vascular smooth muscle cells (bVSMCs); assay: Alizarin Red S staining, bVSMC GAD calcification model (Example 4); format: cell-based; settings: GAD-treated bVSMCs, 10 μM, 7 d, versus no inhibitor
Experimental: as §1
Medium+/−inhibitors was exchanged every 2-3 days. Bovine VSMCs were incubated for 7 d prior to assessment.
The Alizarin Red S staining is a visual/histological stain for tissue calcium deposits. Cells are briefly fixed in 4% paraformaldehyde/PIPES buffer pH 7.2 and subsequently stained for 5 min with Alizarin Red S (2% Alizarin Red S/DIW pH 4.2). Excess stain is removed by washing in DIW. Calcium mineral deposits are stained a bright orange red.

[6] = test system: human vascular smooth muscle cells (hVSMCs); assay: o-Cresolphthalein Ca2+ assay, hVSMC Ca/P calcification model (Examples 7-9); format: cell-based
Experimental: (§2) Primary hVSMCs were cultured in M199 media containing FBS (M199/5% FBS). They were plated at a known cell density, allowed to grow for 24 hours and then treated with control (DMSO only) or calcification media (DMSO containing 2.7 mM Calcium+2.5 mM phosphate)+/−inhibitors. After 6 days, calcification was assessed using the o-Cresolphthalein assay for quantification of Ca^2+ deposition and a BioRad protein assay for protein content.
Medium+/−inhibitors was exchanged every 2-3 days.
as §2, with “8” for “6”, “using” for “using the”
All of the compounds tested were used at a concentration of 3 μM. Medium+/−inhibitors was exchanged every 2-3 days.
as §2, with “phosphate)+/−compounds.” for “phosphate)+/−inhibitors.”, “8” for “6”, “using” for “using the”
These concentrations were chosen to mimic the systemic concentrations of these drugs following patient dosing according to the dose schedule in the prescribing information for each drug. Medium+/−inhibitors was exchanged every 2-3 days.

[7] = hVSMCs, 6 days, PJ34 10 μM, minocycline and cilostazol 0.5, 1 and 2 μM

SMILES | Cell viability of bVSMCs after seven days (MTT signal, relative to control) ([1]; 0.5 uM) | Cell viability of bVSMCs after seven days (MTT signal, relative to control) ([1]; 1 uM) | Cell viability of bVSMCs after seven days (MTT signal, relative to control) ([1]; 2 uM) | Cell viability of bVSMCs after seven days (MTT signal, relative to control) ([1]; 5 uM) | Cell viability of bVSMCs after seven days (MTT signal, relative to control) ([1]; 10 uM) | Cell viability of bVSMCs after seven days (MTT signal, relative to control) ([1]; 20 uM) | Cell viability of bVSMCs after seven days (MTT signal, relative to control) ([1]; 50 uM) | Cell viability of bVSMCs after seven days (MTT signal, relative to control) ([1]; 100 uM) | Cell viability by MTT, percent of control ([2]; 0.5 uM) | Cell viability by MTT, percent of control ([2]; 1 uM) | Cell viability by MTT, percent of control ([2]; 2 uM) | Cell viability by MTT, percent of control ([2]; 5 uM) | Cell viability by MTT, percent of control ([2]; 10 uM) | Cell viability by MTT, percent of control ([2]; 20 uM) | Cell viability by MTT, percent of control ([2]; 50 uM) | Cell viability by MTT, percent of control ([2]; 100 uM) | Toxicity to HMMs (in words) [2] | Calcium levels (mass of calcium, FIG. 7B) compared to no inhibitors [3] | Normalised calcium levels (mass of calcium per mass of protein, FIG. 9B) [3] | Toxicity to bVSMCs (MTT assay, in words) ([1]; at 50 and 100 μM) | also measured
NC(=O)c1cccc(N)c1 [3-AB, 3-aminobenzamide] | 95.77 | 99.58 | 94.53 | 93.35* | 91.99* | 93.42* | 94.64 | 92.48* | 115.25 | 80.78 | 88.03 | 93.51 | 97.34 | 85.76 | 95.92 | 104.20 | relatively innocuous | no effect | slightly lower calcium levels | – | Toxicity to bVSMCs (MTT assay, in words) ([1]; at the concentrations tested (0.5 to 100 μM)): virtually non-toxic; Inhibition of PARP produced by a mammalian cell [4]: inhibit PARP
OCCN(CCO)c1nc(N2CCCCC2)c2nc(N(CCO)CCO)nc(N3CCCCC3)c2n1 [Dipyridamol, dipyridamol] | – | – | – | – | – | – | – | – | – | – | – | – | – | – | – | – | – | elevate calcium levels | elevate calcium levels | toxic | Degree of mineralization judged by eye (Alizarin Red S, FIG. 6) [5]: slightly worse
O=C1CCc2cc(OCCCCc3nnnn3C3CCCCC3)ccc2N1 [cilostazol] | 98.22 | 93.93 | 86.31* | 86.87* | 88.38* | 90.45* | 84.93* | 65.21* | 105.05 | 103.62 | 75.63 | 90.74 | 79.83 | 81.50 | 73.73 | 77.06 | relatively innocuous | no effect | does not appear to have an effect | toxic | Extracellular matrix calcification (summary statement) ([6]; bovine cell and human cell in vitro vascular calcification model): significantly reduce extracellular matrix calcification; Calcium levels (mass of calcium, FIG. 17) versus DMSO Ca+P positive control [6, 7]: reduce the calcium levels; Normalised calcium levels (mass of calcium per mass of protein, FIG. 19) [6, 7]: lower calcium levels significantly; Normalised calcium levels (mass of calcium per mass of protein, FIG. 22) ([6]; hVSMCs, 8 days, 3 μM): particularly effective; Inhibition of calcification, normalised results (FIG. 27) ([6]; hVSMCs, 8 days, concentrations between 0.05 μM and 3 μM): inhibit calcification significantly and repeatedly
